Measurements published in patent US7541141B2, “Method of using estrogen-related receptor alpha (ERRα) status to determine prognosis, treatment strategy and predisposition to breast cancer, and method of using ERRα as a therapeutic target for the treatment of breast cancer” (Wisconsin Alumni Research Foundation, priority 1997, dated 2009).

T1: ERRα1 (Homo sapiens, UniProt P11474)
T1 construct: expressed in transfected cells; host or cells: COS cells (whole-cell extract)
T1 sequence (P11474 1-423): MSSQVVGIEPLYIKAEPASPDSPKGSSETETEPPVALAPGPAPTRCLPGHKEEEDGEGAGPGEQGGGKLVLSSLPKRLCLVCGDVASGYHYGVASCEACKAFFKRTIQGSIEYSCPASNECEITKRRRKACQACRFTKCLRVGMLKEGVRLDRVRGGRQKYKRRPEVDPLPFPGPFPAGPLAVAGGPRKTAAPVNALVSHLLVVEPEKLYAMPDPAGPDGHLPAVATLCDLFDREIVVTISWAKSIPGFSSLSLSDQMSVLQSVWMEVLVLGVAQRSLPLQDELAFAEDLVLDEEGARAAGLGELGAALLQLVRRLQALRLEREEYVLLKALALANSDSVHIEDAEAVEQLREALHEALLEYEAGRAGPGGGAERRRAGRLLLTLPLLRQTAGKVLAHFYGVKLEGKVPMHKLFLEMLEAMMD

B1: ERRα176-423: amino-terminal-deleted ERRα1 variant (residues 76-423) lacking the A/B domain (protein)
chain: MKRLCLVCGDVASGYHYGVASCEACKAFFKRTIQGSIEYSCPASNECEITKRRRKACQACRFTKCLRVGMLKEGVRLDRVRGGRQKYKRRPEVDPLPFPGPFPAGPLAVAGGPRKTAAPVNALVSHLLVVEPEKLYAMPDPAGPDGHLPAVATLCDLFDREIVVTISWAKSIPGFSSLSLSDQMSVLQSVWMEVLVLGVAQRSLPLQDELAFAEDLVLDEEGARAAGLGELGAALLQLVRRLQALRLEREEYVLLKALALANSDSVHIEDAEAVEQLREALHEALLEYEAGRAGPGGGAERRRAGRLLLTLPLLRQTAGKVLAHFYGVKLEGKVPMHKLFLEMLEAMMD
B2: ERRα11-173: carboxyl-terminal-deleted ERRα1 variant (residues 1-173) retaining A/B and DNA binding domains, lacking E/F domains (protein)
chain: MSSQVVGIEPLYIKAEPASPDSPKGSSETETEPPVALAPGPAPTRCLPGHKEEEDGEGAGPGEQGGGKLVLSSLPKRLCLVCGDVASGYHYGVASCEACKAFFKRTIQGSIEYSCPASNECEITKRRRKACQACRFTKCLRVGMLKEGVRLDRVRGGRQKYKRRPEVDPLPFP

Tested on: ERE-dependent transcription in MCF-7 cells
Assay: p3xERE-TK-luc luciferase reporter, transient transfection
Type: cell-based, human
Conditions: 0.12 or 0.25 μg expression plasmid, whole FBS, 48 h
Method: Transient Transfections and Luciferase Assays: To assess the role ERRα plays in regulating transcription of an ERE-containing promoter, MCF-7 or HeLa cells grown in 12-well tissue culture plates were co-transfected in parallel with 0.5 μg of pTK-luc versus p3xERE-TK-luc along with the indicated amounts of the empty cloning vector pcDNA3.1, the ERRα1 expression plasmid pcDNA3.1-hERRα1, or mutant variants thereof. Transfections were performed with the aid of the TransIT LT1 transfection reagent (PanVera, Madison, Wis.) as previously described (35). To examine the effects of ER ligands, cells were maintained in stripped medium for 48 h before transfection and the addition of 17β-estradiol (E2) (Sigma) or the pure anti-estrogen ICI-182,780 (Astra Zeneca, London, UK) dissolved in ethanol and diluted in medium to obtain the indicated concentrations. Cells were harvested 48 h post-transfection, and lysates were assayed for luciferase activity normalized to protein concentration as previously described (36).
ERRα Represses Transcription in MCF-7 Cells: Because ERRα can interfere with the binding of ERα to this ERE, might it affect estrogen-responsive transcription? To answer this question, we co-transfected ERα-positive mammary MCF-7 cells in parallel with p3xERE-TK-luc, a reporter plasmid containing three tandem copies of this ERE (FIG. 14A) or the ERE-negative control plasmid, pTK-luc, together with 0.12 or 0.25 μg of the ERRα1 expression plasmid, pcDNA3.1-hERRα1, or the empty parental expression plasmid, pcDNA3.1. After incubation for 48 h in medium containing whole FBS, the cells were harvested and assayed for luciferase activity. The presence of the EREs conferred an about 150-fold increase in transcriptional activity above the level observed in the cells transfected with the ERE-negative reporter plasmid (FIG. 14B). […] Thus, ERRα inhibits the estrogen-responsive activation of transcription from this ERE-containing promoter in this ER-positive MCF-7 cell line.
ERRα Modulates Estrogen-responsiveness in MCF-7 Cells: To directly examine the effect of ERRα on the response to estrogen, MCF-7 cells were cultured in medium containing estrogen-free charcoal-stripped FBS and cotransfected as described above but in the absence or presence of E2. […] Once again, overexpression of ERRα repressed ERE-dependent transcription approximately 3-fold while having little if any effect on transcription of the control reporter (FIG. 15A).

Molecule | Repression of ERE-dependent transcription by overexpression
B1 | 2-3 fold
B2 | failed to repress

Same assay, conditions: 1×10^−8 M E2, charcoal-stripped FBS

Molecule | Additional stimulation of ERE-dependent transcription over level with 10^−10 M E2
C[C@]12CC[C@@H]3c4ccc(O)cc4CC[C@H]3[C@@H]1CC[C@@H]2O [E2, 17β-estradiol, reference compound] | 3 fold

Same assay, conditions: 1×10^−8 M E2, charcoal-stripped FBS, 48 h

Molecule | ERE-dependent transcription above activity without exogenous E2
C[C@]12CC[C@@H]3c4ccc(O)cc4CC[C@H]3[C@@H]1CC[C@@H]2O [E2, 17β-estradiol, reference compound] | approximately 30 fold

Same assay, conditions: 1×10^−10 M E2, charcoal-stripped FBS, 48 h

Molecule | Induction of transcriptional activity of ERE-containing reporter above level without exogenous E2
C[C@]12CC[C@@H]3c4ccc(O)cc4CC[C@H]3[C@@H]1CC[C@@H]2O [E2, 17β-estradiol, reference compound] | approximately 10 fold

Target: T1, ERRα1
Assay: Quantitative competition EMSA of unlabeled oligodeoxynucleotides against 32P-labeled reference consensus ERRE
Type: binding
Conditions: relative to reference consensus ERRE; reciprocal of fold molar excess of competitor reducing shifted probe by 50%; COS whole cell extracts
Method: Quantitative gel-mobility-shift assays: DNA binding was assayed in 20 μl of a buffer containing 10 mM HEPES (pH 7.5), 2.5 mM MgCl2, 50 μM EDTA, 1 mM dithiothreitol, 6% glycerol and 100 ng/μl of poly(dI-dC)·poly(dI-dC). Competition binding assays included unlabeled competitor oligonucleotide as well. […] Supershift assays contained 1 μl of a 1:10 dilution of whole antiserum. All components were mixed prior to the addition of protein. The final mixtures were incubated on ice for 15 minutes, followed by 25° C. for 15 minutes prior to separation by electrophoresis at 4° C. for 2 hours through a non-denaturing 4% polyacrylamide gel at 160 volts. Quantitation was performed with a PhosphorImager (Molecular Dynamics). The relative affinities of different sequences for binding by the protein were determined from the moles of unlabeled competitor oligonucleotide needed to reduce the fraction of probe shifted to 50%.
Knowing which genes are transcriptionally modulated by ERR may help to clarify ERR's potential role in breast cancer. To identify potential ERR-responsive genes, we examined the transcriptional regulatory regions of genes known to be involved in breast cancer for sequences capable of being bound by ERR. […] This sequence is a half-site of the consensus palindromic estrogen response element (ERE, 5′-AGGTCAnnnTGACCT (SEQ ID NO:32)) with a 3-base pair extension at the 5′ end. Searching sequence databases (the EPD Eukaryotic Promoter Database available on line from the Swiss Institute of Bioinformatics (17), and Genbank available on line from the National Center for Biotechnology Information, National Library of Medicine, National Institute of Health) facilitated the location of this consensus and similar non-consensus ERREs in human gene promoters, which were selected and tested experimentally for whether they contained authentic ERR-binding sites. Using quantitative competitive EMSAs performed similarly as described in FIG. 5 of Example 1, we identified many authentic ERR-binding sites that exist in the promoters of important genes implicated in breast cancer. These sequences and ERR's affinity for binding these sites relative to a reference consensus ERRE are shown in Table 3 (Location, distance of the ERRE sequence from the gene's transcriptional start site; Ref, reference of the gene's prognostic status or relevance to human breast cancer).

Molecule | Relative binding affinity (RBA) of ERRα1 for DNA sequence
AAAATTGTTTTGTCTAGGTCATTTGCATTTTCA (chemistry not given here) [PgR site 1] | 0.14
AAAGGAACTTTCCCAAGGTCACAGAGCTGAGCT (chemistry not given here) [ErbB2] | 1.01
AGAACATCCCTTTTAAGGTCAGAACAAAGGTAT (chemistry not given here) [BRCA2] | 0.08
ATGTTTGGTATGAAAAGGTCACATTTTATATTC (chemistry not given here) [ERα] | 0.11
CAAATAATGGGCTGAAGGTGAACTATCTTTACT (chemistry not given here) [EGF] | 0.14
CAAATTTGAAACTAAAGGTCACAGGCTGCTTTA (chemistry not given here) [Pr1 site 2] | 0.33
CCTCAGAGTGGCTCAGGGTCAGAGAAGGTAGAG (chemistry not given here) [Pr1 site 3] | 0.07
CCTGAGACTCTACCAAGGTCAGAAATGCTGCAA (chemistry not given here) [aromatase] | 0.17
CTCCCATCTCACTTAAGGTCAAAGCCAGGGTCC (chemistry not given here) [elk1] | 0.22
CTGTCGGCAGGAACAAGGTCACCCCTTGGCGTT (chemistry not given here) [IGF2 site 2] | 0.25
GCGAGGAAAGCGTGAAGGTGATTTCAGTTAATT (chemistry not given here) [cyclin D1] | 0.07
GCTCCGGCTCGCTGAAGGTCACAGCCGAGGCGA (chemistry not given here) [IGF1R] | 0.36
GGGAGTTCAGGGTAAAGGTCACGGGGCCGGGGC (chemistry not given here) [hMDM2] | 0.35
GGTGCTCCCACTTAGAGGTCACGCGCGGCGTCG (chemistry not given here) [ERβ] | 0.54
GGTGGACGCTGCTGAAGGTGAGCGAGACCCCGG (chemistry not given here) [IGF2 site 3] | 0.06
GTAATTGCTGTACGAAGGTCAGAATCGCTACCT (chemistry not given here) [BRCA1] | 0.17
GTAGGACCTGGATTAAGGTCAGGTTGGAGGAGA (chemistry not given here) [pS2 site 2] | 0.12
TCCCTTCCCCCTGCAAGGTCACGGTGGCCACCC (chemistry not given here) [pS2 site 1] | 0.49
TCCTAAGGACTGTCAAGGTCATCAAATACAAGG (chemistry not given here) [PgR site 3] | 1.45
TCCTTGCTAAACCCAAGGTCATAAATCTTTTCT (chemistry not given here) [PgR site 2] | 0.91
TCGAGAGCAGTGGCGATTTGTCAAGGTCACACAGTGAG (DNA, backbone not given here) [Reference ERRE, reference compound] | 1.00
TGGCATATTGGGTGAAGGTCAAGGGAGTGGCTT (chemistry not given here) [Cathepsin D] | 0.49
TGTCCATTTTCTTCTAGGTCAACCCCAATGGTA (chemistry not given here) [Pr1 site 1] | 0.06
